Reference: PubChem BioAssay (NCI)
Where “and” joins values, the source holds several entries; their conditions need not be identical. Equal entries are not always repeated.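 Briefly, cells in 96-well plates were exposed to five compound concentrations for 48 h, and endpoints were estimated by linear interpolation. GI50 = concentration required for 50% inhibition of growth. Definition used: TGI = concentration required for complete inhibition of growth.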

What was measured:
Test in all cases: growth of human tumour cells (NCI), 48 h
HCT-116 colon = tested on: HCT-116 colon
HOP-92 NSCLC = tested on: HOP-92 NSCLC
HT29 colon = tested on: HT29 colon
KM12 colon = tested on: KM12 colon
MDA-MB-435 = tested on: MDA-MB-435
NCI/ADR-RES ovarian = tested on: NCI/ADR-RES ovarian
OVCAR-5 ovarian = tested on: OVCAR-5 ovarian
RXF 393 renal = tested on: RXF 393 renal
SF-295 CNS = tested on: SF-295 CNS
SK-MEL-5 melanoma = tested on: SK-MEL-5 melanoma

Compound	GI50 (HCT-116 colon)	TGI (HCT-116 colon)	GI50 (HOP-92 NSCLC)	TGI (HOP-92 NSCLC)	GI50 (HT29 colon)	TGI (HT29 colon)	GI50 (KM12 colon)	TGI (KM12 colon)	GI50 (MDA-MB-435)	TGI (MDA-MB-435)	GI50 (NCI/ADR-RES ovarian)	TGI (NCI/ADR-RES ovarian)	GI50 (OVCAR-5 ovarian)	TGI (OVCAR-5 ovarian)	GI50 (RXF 393 renal)	TGI (RXF 393 renal)	GI50 (SF-295 CNS)	TGI (SF-295 CNS)	GI50 (SK-MEL-5 melanoma)	TGI (SK-MEL-5 melanoma)
O=c1c2ccccc2oc2ccc(OCCCCCCN3CCCCCC3)cc12	2.13 µM	5.16 µM	4.29 µM	20.7 µM	1.91 µM	6.57 µM	3.2 µM	11.5 µM	2.53 µM	8.75 µM	3.73 µM	24.6 µM	3.24 µM	13.5 µM	2.17 µM	5.6 µM	2.16 µM	5.87 µM	1.68 µM	3.04 µM
Cc1cc([N+](=O)[O-])c(C)c(Br)c1C	–	> 100 µM	–	> 100 µM	–	> 100 µM	–	> 100 µM	–	> 100 µM	–	> 100 µM	–	> 100 µM	–	> 100 µM	–	> 100 µM	–	> 100 µM
O=C(NCCCCCCCNC(=O)OCc1ccc2c(Cl)cc(Cl)c(O)c2n1)OCc1ccc2c(Cl)cc(Cl)c(O)c2n1	0.241 µM	0.63 µM	1.07 µM	2.71 µM	0.538 µM	2.46 µM	1.18 µM	2.87 µM	0.297 µM	0.931 µM	0.338 µM	3.59 µM	1.69 µM	3.32 µM	0.812 µM	2.13 µM	1.73 µM	3.41 µM	0.966 µM	2.26 µM
COc1ccc(CCc2cc(OC)c(OC)c(OC)c2)cc1	–	9.41 µM	–	62.7 µM	–	1.44 µM	–	5.77 µM	–	0.0345 µM	–	> 100 µM	–	> 100 µM	–	0.057 µM	–	1.46 µM	–	12 µM
Nc1ccc2c(c1)c(N)nn2C(=O)Nc1ccc(Cc2ccccc2)cc1	6.79 µM	20.8 µM	10.4 µM	24.4 µM	4.51 µM	17.2 µM	3.34 µM	15.1 µM	7.36 µM	23.8 µM	17.4 µM	75.1 µM	22.6 µM	60.5 µM	21.4 µM	43.9 µM	3.96 µM	15.1 µM	6.52 µM	19.8 µM
CSc1ccc(C(=O)C(=O)c2ccc(SC)s2)s1	–	> 10 µM	–	> 10 µM	–	> 10 µM	–	> 10 µM	–	> 10 µM	–	> 10 µM	–	> 10 µM	–	> 10 µM	–	> 10 µM	–	> 10 µM
CCOP(=O)(OCC)C(C)(CC)NC(=O)C(C(F)(F)F)C(F)(F)F (stereo unspecified)	–	> 100 µM	–	> 100 µM	–	> 100 µM	–	> 100 µM	–	> 100 µM	–	> 100 µM	–	> 100 µM	–	> 100 µM	–	> 100 µM	–	> 100 µM
COc1cccc(C2NC(=S)NC(C)=C2C(=O)Nc2ccc(Cl)c(Cl)c2)c1 (stereo unspecified)	8.47 µM	15.9 µM	12.5 µM	38.7 µM	–	–	10.1 µM	20.5 µM	8.22 µM	16.8 µM	> 50 µM	> 50 µM	28.7 µM	> 50 µM	9.14 µM	22.3 µM	9.72 µM	21.6 µM	8.43 µM	16.1 µM
CC(=O)N(Cc1ccccc1)c1ccccc1I(=O)=O	–	–	13.3 µM	67.5 µM	27.8 µM	> 100 µM	42 µM	> 100 µM	49.9 µM	> 100 µM	37.8 µM	> 100 µM	> 100 µM	> 100 µM	> 100 µM	> 100 µM	48.3 µM	> 100 µM	33.6 µM	> 100 µM
COC(=O)c1c(C)nc(C)c(NO)c1-c1ccccc1C(F)(F)F	–	29.9 µM	–	29 µM	–	33.7 µM	–	> 100 µM	–	37.6 µM	–	38.4 µM	–	> 100 µM	–	32 µM	–	> 100 µM	–	> 100 µM
Nc1ccc(S(=O)(=O)Nc2cnc3c(Cl)cccc3n2)cc1	14.7 µM	609 µM	–	544 µM	> 82.8 µM	> 750 µM	99.6 µM	709 µM	31.5 µM	> 750 µM	–	629 µM	> 80.7 µM	> 750 µM	9.52 µM	> 31.6 µM and 460 µM	–	737 µM	–	> 627 µM
CN1CCN(c2nc(-c3ccncc3)nc3sc4c(c23)CCCCCC4)CC1	5.13 µM	17.7 µM	0.654 µM	5.32 µM	4.75 µM	17.3 µM	13.4 µM	28 µM	11.8 µM	26 µM	8.17 µM	24.5 µM	10.8 µM	22.9 µM	4.08 µM	19 µM	–	–	7.94 µM	20.5 µM
CCOP(=O)(Nc1ccc2oc(=O)c3ccccc3c2c1)OCC	–	> 100 µM	–	> 100 µM	–	> 100 µM	–	–	–	> 100 µM	–	> 100 µM	–	> 100 µM	–	> 100 µM	–	> 100 µM	–	> 100 µM
CC1CCC2N(C1)CC1C3(O)CC45OC6(O)C(O)CCC4(C)C6CCC5C3(O)CC(O)C1(O)C2(C)O (stereo unspecified)	–	> 100 µM	–	> 100 µM	–	> 100 µM	–	> 100 µM	–	> 100 µM	–	> 100 µM	–	> 100 µM	–	> 100 µM	–	> 100 µM	–	> 100 µM
COc1ccc(C(O)CC(O)(C(F)(F)F)C(F)(F)F)cc1 (stereo unspecified)	–	38.1 µM	–	44.4 µM	–	> 100 µM	–	> 100 µM	–	> 100 µM	–	59.7 µM	–	83.9 µM	–	62 µM	–	75.7 µM	–	36.2 µM
O=C1CN(/N=C/c2ccc(-c3ccc(F)cc3)o2)C(=O)N1	–	> 100 µM	–	57.8 µM	–	–	–	> 100 µM	–	41.1 µM	–	> 100 µM	–	> 100 µM	–	> 100 µM	–	> 100 µM	–	> 100 µM
CC1OC(OC2CCC3(C=O)C4CCC5(C)C(C6=CC(=O)OC6)CCC5(O)C4CCC3(O)C2)C(O)C(O)C1O (stereo unspecified)	–	–	–	0.000102 µM	–	–	–	0.000298 µM	–	7.77e-05 µM	–	6.17e-05 µM	0.0112 µM	–	–	8.12e-05 µM	–	6.69e-05 µM	–	–
CO[C@@]12[C@@H]3NC3CN1C1=C(C(=O)C(N)=C(C)C1=O)[C@@H]2COC(N)=O (stereo partly specified)	0.53 µM	3.26 µM	1.44 µM	5.73 µM	–	5.24 µM	1.22 µM	7.22 µM	1.13 µM	8.3 µM	3.45 µM	> 90.5 µM	1.02 µM	6.99 µM	1.27 µM	4.16 µM	–	–	–	0.631 µM
